Consider four compounds from patent US7026489B2, “Ketol fatty acid derivative and plant growth regulating agents” (Shiseido Company, Ltd., priority 2000, dated 2006).

Each structure is given as a SMILES string.

Experiment [1] has as its system morning glory (Pharbitis nil). Briefly: Flower bud formation promoting activity of ketol fatty acid derivative II in morning glory (Example 6). The class given is in vivo. The following applies: for flower bud formation promoting effect (number of flower buds per plant, % of control): sprayed at 1 μM onto cotyledons, 14 hours dark, counted on day 16, compound (4) at 1 μM and 100 μM, FIG. 6. The protocol: Seeds (9 g) of morning glory (variety name: Murasaki) were treated with concentrated sulfuric acid for 20 minutes, and then left to stand overnight under running water. Subsequently, the treated seeds were placed on wet sea sand for 24 hours, hilum side up, to thereby form roots. The seeds having roots were planted in sea sand to a depth of 1.5 cm to 2.0 cm, followed by culturing under continuous light (for approximately 5 days). The whole plants of the morning glory which had put forth leaves through the culture were transferred to a culture solution [KNO3 (250 mg), NH4NO3 (250 mg), KH2PO4 (250 mg), MgSO4.7H2O (250 mg), MnSO4.4H2O (1 mg), Fe-citrate n-hydrate (6 mg), H3BO3 (2 mg), CuSO4.5H2O (0.1 mg), ZnSO4.7H2O (0.2 mg), Na2MoO4.2H2O (0.2 mg), Ca(H2PO4)2.2H2O (250 mg)/distilled water (1,000 mL)]. While ketol fatty acid derivative (9) of the invention, which was obtained in the above Example 5, or test compounds such as Compound (4) was directly sprayed onto the cotyledons of the above morning glory plants grown in the culture system, the morning glory plants were subjected to treatment in the dark, then raised under the application of continuous light at 26° C. for 16 days. On day 16, the number of flower buds of the morning glory plants was counted (8 plants/group). The treatment in the dark was performed overnight (for 14 hours). In FIG. 6, along the X axis, (a) represents a control (a group of plants sprayed with distilled water), (b) represents a group of plants sprayed with ketol fatty acid derivative (9) (1 μM), (c) represents a group of plants sprayed with compound (4) (1 μM) and L-isoleusine (1 μM), (d) represents a group of plants sprayed with L-isoleusine (1 μM), (e) represents a group of plants sprayed with compound (4) (1 μM), and (f) represents a group of plants sprayed with compound (4) (100 μM). The Y axis represents flower bud formation promoting activity (shown as the percentage of each group to the control group (=100%) in terms of the number of flower buds per plant). […]

The test system of experiment [2] is a broad range of plants. The settings on record: alone or in combination with norepinephrine; cited from earlier work.
Experiment [3] concerns morning glory (Pharbitis nil). Briefly: Flower bud formation promoting activity of compounds (4) and (5) in morning glory (Example 2). The class given is in vivo. The following applies: sprayed onto cotyledons, 14 hours dark, counted on day 14; FIG. 3. The protocol:
Seeds (9 g) of morning glory (variety name: Murasaki) were treated with concentrated sulfuric acid for 20 minutes, and then left to stand overnight under running water. Subsequently, the treated seeds were placed on wet sea sand for 24 hours, hilum side up, to thereby form roots. The seeds having roots were planted in sea sand to a depth of 1.5 cm to 2.0 cm, followed by culturing under continuous light (for approximately 5 days). The whole plants of the morning glory which had put forth leaves through the culture were transferred to a culture solution [KNO3 (250 mg), NH4NO3 (250 mg), KH2PO4 (250 mg), MgSO4.7H2O (250 mg), MnSO4.4H2O (1 mg), Fe-citrate n-hydrate (6 mg), H3BO3 (2 mg), CuSO4.5H2O (0.1 mg), ZnSO4.7H2O (0.2 mg), Na2MoO4.2H2O (0.2 mg), Ca(H2PO4)2.2H2O (250 mg)/distilled water (1,000 mL)]. Compound (4) or compound (5) was sprayed onto the cotyledons of the above morning glory plants at a spray volume of 2 mL per eight plants. The morning glory plants were subjected to treatment in the dark (14 hours), then raised under the application of continuous light at 26° C. for 14 days. On day 14, the number of flower buds of the morning glory plants was counted. As a control, distilled water was sprayed onto a group of plants. Compound (4) was sprayed at a concentration of 100 μM, whereas compound (5) was sprayed at concentrations of 0.001 μM to 100 μM.

As for `CC[C@H](C)[C@H](N)C(=O)O` [L-isoleucine, reference compound], in experiment [1], the “flower bud formation promoting effect (number of flower buds per plant, % of control)” value was “not observed”. For the compound `CC/C=C\C/C=C\CC(=O)C(O)CCCCCCCC(=O)O` (centres unmarked) [compound (4), 9-hydroxy-10-oxo-12(Z),15(Z)-octadecadienoic acid], the “flower bud formation promoting effect” value in experiment [2] is recorded as “exhibit flower bud formation promoting effect”. Regarding `CC/C=C\C/C=C\CC(=O)C(O)CCCCCCCC(=O)NC(C(=O)O)C(C)CC` [ketol fatty acid derivative (9), N-[9-hydroxy-10-oxo-12(Z),15(Z)-octadecadienoyl]-L-isoleucine], in experiment [1], the “flower bud formation promoting effect (number of flower buds per plant, % of control)” value was “equal or higher flower bud formation promoting effect as compared with compound (4)”. Moreover, the “optimum administration concentration for flower bud formation promoting activity” value in experiment [1] (sprayed at 0.1 to 100 μM, FIG. 7) is reported as “approximately 1 μM”.

Turning to `CC/C=C\C[C@H]1[C@H](CC(=O)[C@H](O)CCCCCCCC(=O)O)O[C@@]2(O)CC13C(=CC2=O)NC[C@H]3O` [compound (5), (9R)-11-{(2′S,8′S,10′S,11′R)-2′,8′-dihydroxy-7′-oxo-11′-[(Z)-2-pentenyl]-9′-oxa-4′-azatricyclo[6.3.1.0^1.5]dodec-5′-en-10′-yl}-9-hydroxy-10-oxoundecanoic Acid], the “concentration exhibiting the same level of flower bud formation promoting activity as 100 μM compound (4)” value in experiment [3] was 0.01 µM.
